# Reference: patent publication US20250099420A1, “SMALL MOLECULE MODULATORS OF GPR139 COMPLEX” (University of Florida Research Foundation, Incorporated, priority 2022, published 2025)
# Read-outs that look alike come from different tables or passages of the source.
# Tests used:
# [1] = system: parental HEK cells; assay: HEK parental Agonist Counterscreen Assay (non-transfected cells); format: cell-based; settings: for Averaged Max % Response (±St. Dev.): activity relative to known control
# Source text: The high control for the agonist counterscreen was Forskolin not acetylcholine.
# [2] = biological target: T1, GPR139 (Homo sapiens, UniProt Q6DWJ6); assay: GPR139 Agonist titration / agonist counterscreen assay (calcium detection, HEK-GPR139 cells); format: cell-based; set-up: expressed in transfected cells; host or cells: HEK Aequorin cells, Maxcyte transient transfection; settings: GPR139 Agonist Activity; for Averaged Max % Response (±St. Dev.): activity relative to known control; for EC50: read-out: EC50
# T1 sequence (Q6DWJ6 1-353): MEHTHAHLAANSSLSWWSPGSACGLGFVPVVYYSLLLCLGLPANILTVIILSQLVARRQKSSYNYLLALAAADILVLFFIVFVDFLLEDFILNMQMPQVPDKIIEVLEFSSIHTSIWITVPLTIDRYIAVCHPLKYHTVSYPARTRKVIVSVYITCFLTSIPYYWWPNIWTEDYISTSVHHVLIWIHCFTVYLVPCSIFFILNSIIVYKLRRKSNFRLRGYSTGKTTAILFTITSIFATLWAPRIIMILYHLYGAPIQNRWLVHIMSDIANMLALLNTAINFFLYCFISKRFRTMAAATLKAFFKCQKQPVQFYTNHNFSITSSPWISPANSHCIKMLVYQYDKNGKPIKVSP
# Method: GPR activity was assessed using a calcium detection assay. […] Negative control samples were treated with DMSO. […] Intracellular calcium was measured using Calcium 5.
# [3] = HEK Agonist Activity section of Table 4 (parental HEK counterscreen)
# [4] = values printed in E-notation without unit
# [5] = Homo sapiens, HEK293, HEK Agonist Activity section of Table 4 (parental HEK counterscreen)
# [6] = HEK Agonist Activity, parental non-transfected HEK cells
structure (smiles),measurement,setting,value
CC(C)c1ccc(NC(=O)Cn2ncc3c2-c2ccccc2OC3)cc1 [SR-01000098920],Lipophilic Efficiency (logD),[1]; HEK Agonist Activity section,1.13
same,Lipophilic Efficiency (logP),[1]; HEK Agonist Activity section,1.13
same,EC50,[1]; [3],> 14100 nM
same,Averaged Max % Response (±St. Dev.),[1]; HEK Agonist Activity section,10.87 ± 9.19%
same,Averaged Max % Response (±St. Dev.),[2],139.09 ± 25.80%
same,Lipophilic Efficiency (logD),[2]; based on logD,3.02
same,Lipophilic Efficiency (logP),[2]; based on logP,3.02
same,Hill Slope,[2]; fitted dose-response curve,0.40
same,Efficiency Ligand,[2]; ligand efficiency,0.36
same,EC50,[2]; [4],181 nM
O=C(CC1Nc2ccccc2NC1=O)NCC1COc2ccccc2O1 (stereo not drawn) [SR-01000146516],Lipophilic Efficiency (logD),[1]; HEK Agonist Activity section,3.75
same,Lipophilic Efficiency (logP),[1]; HEK Agonist Activity section,3.75
same,Averaged Max % Response (±St. Dev.),[1]; HEK Agonist Activity section,−2.96 ± 7.51%
same,EC50,[1]; [5],> 14100 nM
same,Averaged Max % Response (±St. Dev.),[2],88.18 ± 13.52%
same,Lipophilic Efficiency (logD),[2]; based on logD,5.60
same,Lipophilic Efficiency (logP),[2]; based on logP,5.60
same,Hill Slope,[2]; fitted dose-response curve,0.77
same,Efficiency Ligand,[2]; ligand efficiency,0.36
same,EC50,[2]; [4],196 nM
CCCC1(CCC)NC(=O)N(CC(=O)NCc2ccc(Cl)cc2)C1=O [SR-01000050884],Lipophilic Efficiency (logD),[1]; HEK Agonist Activity section,1.88
same,Lipophilic Efficiency (logP),[1]; HEK Agonist Activity section,1.88
same,Averaged Max % Response (±St. Dev.),[1]; HEK Agonist Activity section,5.22 ± 1.83%
same,EC50,[1]; [5],> 15400 nM
same,Efficiency Ligand,[2],0.36
same,Hill Slope,[2],0.73
same,Lipophilic Efficiency (logD),[2],3.46
same,Lipophilic Efficiency (logP),[2],3.46
same,EC50,[2]; HEK-GPR139 cells,408 nM
same,Averaged Max % Response (±St. Dev.),[2],89.45 ± 3.28%
CC(Oc1ccc(Cl)cc1Cl)C(=O)NNC(=O)c1ccc(F)cc1 (stereo not drawn) [SR-01000520452],Lipophilic Efficiency (logD),[1]; HEK Agonist Activity section,1.26
same,Lipophilic Efficiency (logP),[1]; HEK Agonist Activity section,1.13
same,Averaged Max % Response (±St. Dev.),[1]; HEK Agonist Activity section,1.29 ± 6.31%
same,EC50,[1]; [5],> 15700 nM
same,Averaged Max % Response (±St. Dev.),[2],113.17 ± 28.03%
same,Lipophilic Efficiency (logD),[2]; based on logD,3.08
same,Lipophilic Efficiency (logP),[2]; based on logP,2.96
same,Hill Slope,[2]; fitted dose-response curve,0.85
same,Efficiency Ligand,[2]; ligand efficiency,0.39
same,EC50,[2]; [4],235 nM
O=C(CNc1nnc(CCCOc2ccc(Cl)cc2Cl)o1)Nc1nccs1 [SR-01000280669],Lipophilic Efficiency (logD),[1]; HEK Agonist Activity section,1.27
same,Lipophilic Efficiency (logP),[1]; HEK Agonist Activity section,1.27
same,Averaged Max % Response (±St. Dev.),[1]; HEK Agonist Activity section,−0.76 ± 4.25%
same,EC50,[1]; [5],> 14100 nM
same,Efficiency Ligand,[2],0.33
same,Hill Slope,[2],0.56
same,Lipophilic Efficiency (logD),[2],2.70
same,Lipophilic Efficiency (logP),[2],2.70
same,EC50,[2]; HEK-GPR139 cells,516 nM
same,Averaged Max % Response (±St. Dev.),[2],83.43 ± 6.82%
CC(C(=O)NCCc1ccc(Cl)cc1)n1ncn2cccc2c1=O (stereo not drawn) [SR-01000140260],Lipophilic Efficiency (logD),[1]; HEK Agonist Activity,2.84
same,Lipophilic Efficiency (logP),[1]; HEK Agonist Activity,2.84
same,Averaged Max % Response (±St. Dev.),[1]; HEK Agonist Activity,19.72 ± 7.61%
same,EC50,[1]; [6],> 14100 nM
same,Averaged Max % Response (±St. Dev.),[2],114.94 ± 7.97%
same,Lipophilic Efficiency (logD),[2]; based on logD,6.86
same,Lipophilic Efficiency (logP),[2]; based on logP,6.86
same,Hill Slope,[2]; fitted dose-response curve,0.54
same,Efficiency Ligand,[2]; ligand efficiency,0.52
same,EC50,[2]; [4],1.3 nM
O=C(CSc1ccc(Cl)cc1)NNC(=O)c1ccc([N+](=O)[O-])cc1 [SR-01000286858],Lipophilic Efficiency (logD),[1]; HEK Agonist Activity section,2.09
same,Lipophilic Efficiency (logP),[1]; HEK Agonist Activity section,2.08
same,Averaged Max % Response (±St. Dev.),[1]; HEK Agonist Activity section,4.98 ± 9.07%
same,EC50,[1]; [5],> 14100 nM
same,Efficiency Ligand,[2],0.38
same,Hill Slope,[2],0.60
same,Lipophilic Efficiency (logD),[2],3.68
same,Lipophilic Efficiency (logP),[2],3.67
same,EC50,[2]; HEK-GPR139 cells,366 nM
same,Averaged Max % Response (±St. Dev.),[2],111.41 ± 5.44%
CN1CC[C@H](Oc2cc(-c3cn[nH]c3)ccc2NC(=O)N(Cc2ccccc2)C2CC2)C1.O=C(O)C(F)(F)F.O=C(O)C(F)(F)F [SR-00000007518],Lipophilic Efficiency (logD),[1]; HEK Agonist Activity section,2.64
same,Lipophilic Efficiency (logP),[1]; HEK Agonist Activity section,1.58
same,EC50,[1]; [3],> 14100 nM
same,Averaged Max % Response (±St. Dev.),[1]; HEK Agonist Activity section,23.13 ± 2.30%
same,Averaged Max % Response (±St. Dev.),[2],91.59 ± 7.88%
same,Lipophilic Efficiency (logD),[2]; based on logD,4.71
same,Lipophilic Efficiency (logP),[2]; based on logP,3.64
same,Hill Slope,[2]; fitted dose-response curve,0.81
same,Efficiency Ligand,[2]; ligand efficiency,0.30
same,EC50,[2]; [4],120 nM
O=C(Cn1ncc2c1-c1ccccc1OC2)Nc1ccccn1 [SR-01000135048],Lipophilic Efficiency (logD),[1]; HEK Agonist Activity section,3.00
same,Lipophilic Efficiency (logP),[1]; HEK Agonist Activity section,3.00
same,Averaged Max % Response (±St. Dev.),[1]; HEK Agonist Activity section,12.06 ± 16.35%
same,EC50,[1]; [5],> 14100 nM
same,Averaged Max % Response (±St. Dev.),[2],109.25 ± 4.64%
same,Lipophilic Efficiency (logD),[2]; based on logD,4.72
same,Lipophilic Efficiency (logP),[2]; based on logP,4.72
same,Hill Slope,[2]; fitted dose-response curve,1.29
same,Efficiency Ligand,[2]; ligand efficiency,0.40
same,EC50,[2]; [4],266 nM
CCC1(c2ccc(Cl)cc2)NC(=O)N(CC(=O)N2CC3(C)CC2CC(C)(C)C3)C1=O (stereo not drawn) [SR-01000045673],Lipophilic Efficiency (logD),[1]; HEK Agonist Activity section,1.24
same,Lipophilic Efficiency (logP),[1]; HEK Agonist Activity section,1.24
same,Averaged Max % Response (±St. Dev.),[1]; HEK Agonist Activity section,4.34 ± 4.74%
same,EC50,[1]; [5],> 14300 nM
same,Averaged Max % Response (±St. Dev.),[2],101.61 ± 5.25%
same,Lipophilic Efficiency (logD),[2]; based on logD,3.67
same,Lipophilic Efficiency (logP),[2]; based on logP,3.67
same,Hill Slope,[2]; fitted dose-response curve,0.62
same,Efficiency Ligand,[2]; ligand efficiency,0.34
same,EC50,[2]; [4],54.3 nM
O=C(NCC1Cc2cccc(-c3ccccn3)c2O1)c1ccc(-n2cccn2)cc1 (stereo not drawn) [SR-01000183606],Lipophilic Efficiency (logD),[1]; HEK Agonist Activity,1.16
same,Lipophilic Efficiency (logP),[1]; HEK Agonist Activity,1.16
same,Averaged Max % Response (±St. Dev.),[1]; HEK Agonist Activity,−9.57 ± 3.95%
same,EC50,[1]; [6],> 14100 nM
same,Averaged Max % Response (±St. Dev.),[2],89.43 ± 6.88%
same,Lipophilic Efficiency (logD),[2]; based on logD,3.97
same,Lipophilic Efficiency (logP),[2]; based on logP,3.96
same,Hill Slope,[2]; fitted dose-response curve,0.82
same,Efficiency Ligand,[2]; ligand efficiency,0.36
same,EC50,[2]; [4],22 nM
Cc1ccc(CCNC(=O)Cn2nc(-c3ccccc3)ccc2=O)cc1 [SR-01000145157],Lipophilic Efficiency (logD),[1]; HEK Agonist Activity section,1.85
same,Lipophilic Efficiency (logP),[1]; HEK Agonist Activity section,1.85
same,EC50,[1]; [3],> 14100 nM
same,Averaged Max % Response (±St. Dev.),[1]; HEK Agonist Activity section,17.61 ± 4.99%
same,Averaged Max % Response (±St. Dev.),[2],83.58 ± 17.45%
same,Lipophilic Efficiency (logD),[2]; based on logD,3.85
same,Lipophilic Efficiency (logP),[2]; based on logP,3.85
same,Hill Slope,[2]; fitted dose-response curve,0.58
same,Efficiency Ligand,[2]; ligand efficiency,0.37
same,EC50,[2]; [4],140 nM
Cn1c(CCc2ccc(F)cc2F)nnc1C1=C(O)N=C2CC=CC21 (stereo not drawn) [SR-01000922914],Lipophilic Efficiency (logD),[1]; HEK Agonist Activity section,0.70
same,Lipophilic Efficiency (logP),[1]; HEK Agonist Activity section,0.70
same,Averaged Max % Response (±St. Dev.),[1]; HEK Agonist Activity section,−4.64 ± 6.81%
same,EC50,[1]; [5],> 14100 nM
same,Efficiency Ligand,[2],0.36
same,Hill Slope,[2],0.68
same,Lipophilic Efficiency (logD),[2],2.32
same,Lipophilic Efficiency (logP),[2],2.32
same,EC50,[2]; HEK-GPR139 cells,335 nM
same,Averaged Max % Response (±St. Dev.),[2],76.15 ± 6.21%
O=C(CN1CCN(Cc2ccc(F)cc2Cl)C1=O)NCc1ccccc1Cl [SR-01000125622],Lipophilic Efficiency (logD),[1]; HEK Agonist Activity section,1.80
same,Lipophilic Efficiency (logP),[1]; HEK Agonist Activity section,1.80
same,Averaged Max % Response (±St. Dev.),[1]; HEK Agonist Activity section,−10.20 ± 10.64%
same,EC50,[1]; [5],> 14100 nM
same,Averaged Max % Response (±St. Dev.),[2],99.14 ± 16.79%
same,Lipophilic Efficiency (logD),[2]; based on logD,3.63
same,Lipophilic Efficiency (logP),[2]; based on logP,3.63
same,Hill Slope,[2]; fitted dose-response curve,0.99
same,Efficiency Ligand,[2]; ligand efficiency,0.35
same,EC50,[2]; [4],208 nM
COc1ccc2c(c1)C[C@H](C(=O)Nc1ccc(-c3cn[nH]c3)cc1OCC1CNC1)NC2.O=C(O)C(F)(F)F.O=C(O)C(F)(F)F.O=C(O)C(F)(F)F [SR-00000006698],Lipophilic Efficiency (logD),[1]; HEK Agonist Activity section,6.10
same,Lipophilic Efficiency (logP),[1]; HEK Agonist Activity section,3.11
same,EC50,[1]; [3],> 14100 nM
same,Averaged Max % Response (±St. Dev.),[1]; HEK Agonist Activity section,5.81 ± 4.77%
same,Efficiency Ligand,[2],0.29
same,Hill Slope,[2],1.33
same,Lipophilic Efficiency (logD),[2],7.81
same,Lipophilic Efficiency (logP),[2],4.82
same,EC50,[2]; HEK-GPR139 cells,274 nM
same,Averaged Max % Response (±St. Dev.),[2],88.34 ± 12.18%
